# Assay results published in patent US5482996A, “Protein-containing polymers and a method of synthesis of protein-containing polymers in organic solvents” (University of Pittsburgh, priority 1993, dated 1996).
# Starred links: 1 amine or outer side, 2 acyl side, 3 side chain; linkers in the order of their positions; H or OH if unused. Residues, ends and D or L forms follow the SMILES beside them. *: point of attachment. pNA = O=[N+]([O-])c1ccc(N*)cc1; Suc = O=C(CCC(=O)[*:2])[*:1]
# Assays:
# Experiment in all cases: Hydrolysis of peptide p-nitroanilide substrate, kinetic constants
# Type in all cases: biochemical
# [1] = biological target: T1, Subtilisin Carlsberg, native (pure subtilisin standard) (Bacillus licheniformis, UniProt P00780)
# T1 construct: purchased Sigma Chemical Co
# T1 sequence (P00780 106-379): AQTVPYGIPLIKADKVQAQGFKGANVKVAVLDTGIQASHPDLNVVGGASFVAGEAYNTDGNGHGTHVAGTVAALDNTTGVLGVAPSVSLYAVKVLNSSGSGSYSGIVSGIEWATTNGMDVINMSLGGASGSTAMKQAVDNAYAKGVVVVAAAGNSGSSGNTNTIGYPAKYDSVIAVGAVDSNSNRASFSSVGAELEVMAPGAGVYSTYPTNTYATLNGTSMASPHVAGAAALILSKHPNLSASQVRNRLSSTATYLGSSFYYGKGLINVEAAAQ
# Procedure: (§1) Kinetic studies of the modified protein were performed using substrate (N-succinyl-L-alanyl-L-alanyl-L-prolyl-L-phenylalanyl p-nitroanilide) in 0.1M Tris-HCl buffer, pH 8.6. The purified HPLC fractions (three total) were tested for activity while increasing the substrate concentrations in equal increments. Substrate concentration versus rate was plotted to determine Vmax and Km using non-linear regression analysis. A standard of pure subtilisin was analyzed as a control.
# (§2) As set forth above, the activity of the modified enzymes was assessed with the artificial peptide substrate succinyl-L-alanyl-L-alanyl-L-prolyl-L-phenylalanyl p-nitroanilide. A sample of 30 mg modified protein powder was dissolved in tetrahydrofuran, and filtered with a solvent resistant 0.22 μm filter in order to remove the insoluble native protein. The solvent was evaporated and, as mentioned above, values for Vmax and Km were determined.
# [2] = biological target: T2, Subtilisin Carlsberg, doubly modified with PEG monomethacrylate (MW 8,000) (Bacillus licheniformis, UniProt P00780)
# T2 construct: purchased Sigma Chemical Co
# T2 sequence (P00780 106-379): T1 sequence (P00780 106-379)
# Procedure: as §1
# (§3) Before reacting PEG-subtilisin with other materials it is necessary to fully characterize the activity and stability of the "bio-monomer". Using solubility, IMAC, and HPLC the modified protein was separated into predominantly singly or doubly modified protein fractions. […] Thus, the activities and stabilities noted are average properties for the sample being studied. For comparison to the native protein, unmodified protein was purified from the modification reaction mixture and characterized to some degree.
# as §2
# [3] = biological target: T3, Subtilisin Carlsberg, singly modified with PEG monomethacrylate (MW 8,000) (Bacillus licheniformis, UniProt P00780); conditions: 25% dioxane/75% buffer
# T3 construct: purchased Sigma Chemical Co
# T3 sequence (P00780 106-379): T1 sequence (P00780 106-379)
# Procedure: as §1, §3, §2
# [4] = biological target: T4, Subtilisin Carlsberg, unmodified fraction purified from the PEG modification reaction mixture (Bacillus licheniformis, UniProt P00780)
# T4 construct: purchased Sigma Chemical Co
# T4 sequence (P00780 106-379): T1 sequence (P00780 106-379)
# Procedure: as §1, §3, §2
smiles,measurement,setting,value
C[C@H](NC(=O)CCC(=O)O)C(=O)N[C@@H](C)C(=O)N1CCC[C@H]1C(=O)N[C@@H](Cc1ccccc1)C(=O)Nc1ccc([N+](=O)[O-])cc1 [N-succinyl-L-alanyl-L-alanyl-L-prolyl-L-phenylalanyl p-nitroanilide] (Suc-AAPF-pNA),Vmax,[1]; 25% dioxane/75% buffer,66.2 ΔA412/sec/mg protein
same,Vmax,"[1]; Tris-HCl buffer (0.1M, pH 8.6)",108 ΔA412/sec/mg protein
same,Vmax,[2]; 25% dioxane/75% buffer,1.8 ΔA412/sec/mg protein
same,Vmax,"[2]; Tris-HCl buffer (0.1M, pH 8.6)",1.6 ΔA412/sec/mg protein
same,Vmax,[3],5.3 ΔA412/sec/mg protein
same,Vmax,[4]; 25% dioxane/75% buffer,2.9 ΔA412/sec/mg protein
same,Vmax,"[4]; Tris-HCl buffer (0.1M, pH 8.6)",2.2 ΔA412/sec/mg protein
